The MIC is the lowest concentration found to suppress growth.

In brackets after ≈: the same amount, converted by molar mass.

The text below walks through data of ChEMBL document CHEMBL5357035, “Previously Uncharacterized Variants, OCF-E-OCF-J, of the Antifungal Occidiofungin Produced by Burkholderia contaminans MS14” (2024).

What all share (type): functional
For test [1], the system named is Candida albicans. The test is described as follows: Antifungal activity against Candida albicans ATCC3147 assessed as reduction in fungal growth measured after 24 hrs by CLSI protocol based method.
The test system of test [2] is Nakaseomyces glabratus. The test is described as follows: Antifungal activity against Candida glabrata ATCC2001 assessed as reduction in fungal growth measured after 24 hrs by CLSI protocol based method.
The test system of test [3] is [Candida] auris. The experiment in a line: Antifungal activity against Candida auris MYA-500 assessed as reduction in fungal growth measured after 24 hrs by CLSI protocol based method. The conditions noted are these: Candidozyma auris.

On to `CCCCCCCCCCC[C@@H](O[C@H]1OC[C@@H](O)[C@H](O)[C@H]1O)[C@H](O)[C@H](O)C[C@@H]1CC(=O)N[C@@H](CO)C(=O)N[C@H]([C@H](O)c2ccc(O)cc2)C(=O)N[C@H](CCN)C(=O)NCC(=O)N[C@@H](CC(=O)NCC)C(=O)N[C@H](CO)C(=O)N[C@@H](CC(N)=O)C(=O)N1`, for which the results for the MIC in test [1], in test [2] and in test [3] were 2 µg/mL (≈ 1.63 µM), 2 µg/mL (≈ 1.63 µM) and 1 µg/mL (≈ 0.814 µM), respectively.

Take `C#CCCNC(=O)C[C@@H]1NC(=O)CNC(=O)[C@@H](CCN)NC(=O)[C@@H]([C@H](O)c2ccc(O)cc2)NC(=O)[C@H](CO)NC(=O)C[C@@H](C[C@@H](O)[C@@H](O)[C@@H](CCCCCCCCCCC)O[C@H]2OC[C@@H](O)[C@H](O)[C@H]2O)NC(=O)[C@H]([C@H](O)C(N)=O)NC(=O)[C@@H](CO)NC1=O`: the MIC in test [1] and in test [2] was 0.5 µg/mL (≈ 0.394 µM) throughout.

`CCCCCCCCCCC[C@@H](O[C@H]1OC[C@@H](O)[C@H](O)[C@H]1O)[C@H](O)[C@H](O)C[C@@H]1CC(=O)N[C@@H](CO)C(=O)N[C@H]([C@H](O)c2ccc(O)cc2)C(=O)N[C@H](CCN)C(=O)NCC(=O)N[C@@H](CC(=O)NC)C(=O)N[C@H](CO)C(=O)N[C@@H](CC(N)=O)C(=O)N1`: the MIC in test [1], in test [2] and in test [3] was 0.5 µg/mL (≈ 0.412 µM) in each case.

Take `CCCCCCCCCCC[C@@H](O[C@H]1OC[C@@H](O)[C@H](O)[C@H]1O)[C@H](O)[C@H](O)C[C@@H]1CC(=O)N[C@@H](CO)C(=O)N[C@H]([C@H](O)c2ccc(O)cc2)C(=O)N[C@H](CCN)C(=O)NCC(=O)N[C@@H](CC(N)=O)C(=O)N[C@H](CO)C(=O)N[C@@H](CC(N)=O)C(=O)N1`: the MIC in test [1] turned out to be 0.125 µg/mL (≈ 0.104 µM); in test [2], 0.25 µg/mL (≈ 0.208 µM); in test [3] it was 0.25 µg/mL (≈ 0.208 µM).

In the case of `CCCCCCCCCCC[C@@H](O[C@H]1OC[C@@H](O)[C@H](O)[C@H]1O)[C@H](O)[C@H](O)C[C@@H]1CC(=O)N[C@@H](CO)C(=O)N[C@H]([C@H](O)c2ccc(O)cc2)C(=O)N[C@H](CCN)C(=O)NCC(=O)N[C@@H](CC(=O)N(C)C)C(=O)N[C@H](CO)C(=O)N[C@@H]([C@H](O)C(N)=O)C(=O)N1`, the minimal inhibitory concentration (MIC) is 1 µg/mL (≈ 0.804 µM) in test [1], 0.5 µg/mL (≈ 0.402 µM) in test [2] and 0.5 µg/mL (≈ 0.402 µM) in test [3].

As for `CCCCCCCCCCCCNC(=O)C[C@@H]1NC(=O)CNC(=O)[C@@H](CCN)NC(=O)[C@@H]([C@H](O)c2ccc(O)cc2)NC(=O)[C@H](CO)NC(=O)C[C@@H](C[C@@H](O)[C@@H](O)[C@@H](CCCCCCCCCCC)O[C@H]2OC[C@@H](O)[C@H](O)[C@H]2O)NC(=O)[C@H]([C@H](O)C(N)=O)NC(=O)[C@@H](CO)NC1=O`, the minimum inhibitory concentration (MIC) was > 8 µg/mL in test [1] and 8 µg/mL (≈ 5.78 µM) in test [2].

Turning to `CCCCCCCCCCC[C@@H](O[C@H]1OC[C@@H](O)[C@H](O)[C@H]1O)[C@H](O)[C@H](O)C[C@@H]1CC(=O)N[C@@H](CO)C(=O)N[C@H]([C@H](O)c2ccc(O)cc2)C(=O)N[C@H](CCN)C(=O)NCC(=O)N[C@@H](CC(=O)NCCC)C(=O)N[C@H](CO)C(=O)N[C@@H]([C@H](O)C(N)=O)C(=O)N1`, the MIC is 0.5 µg/mL (≈ 0.397 µM) in test [1], 0.5 µg/mL (≈ 0.397 µM) in test [2] and 1 µg/mL (≈ 0.795 µM) in test [3].

Turning to `CCCCCCCCCCC[C@@H](O[C@H]1OC[C@@H](O)[C@H](O)[C@H]1O)[C@H](O)[C@H](O)C[C@@H]1CC(=O)N[C@@H](CO)C(=O)N[C@H]([C@H](O)c2ccc(O)cc2)C(=O)N[C@H](CCN)C(=O)NCC(=O)N[C@@H](CC(=O)N(C)C)C(=O)N[C@H](CO)C(=O)N[C@@H](CC(N)=O)C(=O)N1`, the figures for the MIC in test [1], in test [2] and in test [3] were 1 µg/mL (≈ 0.814 µM), 0.5 µg/mL (≈ 0.407 µM) and 0.5 µg/mL (≈ 0.407 µM), respectively.

As to `C#CCCNC(=O)C[C@@H]1NC(=O)CNC(=O)[C@@H](CCN)NC(=O)[C@@H]([C@H](O)c2ccc(O)cc2)NC(=O)[C@H](CO)NC(=O)C[C@@H](C[C@@H](O)[C@@H](O)[C@@H](CCCCCCCCCCC)O[C@H]2OC[C@@H](O)[C@H](O)[C@H]2O)NC(=O)[C@H](CC(N)=O)NC(=O)[C@@H](CO)NC1=O`, the MIC in test [1] and in test [2] was 0.5 µg/mL (≈ 0.399 µM) each time.

On to `CCCCCCCCCCC[C@@H](O[C@H]1OC[C@@H](O)[C@H](O)[C@H]1O)[C@H](O)[C@H](O)C[C@@H]1CC(=O)N[C@@H](CO)C(=O)N[C@H]([C@H](O)c2ccc(O)cc2)C(=O)N[C@H](CCN)C(=O)NCC(=O)N[C@@H](CC(=O)O)C(=O)N[C@H](CO)C(=O)N[C@@H](CC(N)=O)C(=O)N1`, for which the results for the MIC in test [1], in test [2] and in test [3] were 2 µg/mL (≈ 1.66 µM), 2 µg/mL (≈ 1.66 µM) and 1 µg/mL (≈ 0.832 µM), respectively.

Turning to `CCCCCCCCCCC[C@@H](O[C@H]1OC[C@@H](O)[C@H](O)[C@H]1O)[C@H](O)[C@H](O)C[C@@H]1CC(=O)N[C@@H](CO)C(=O)N[C@H]([C@H](O)c2ccc(O)cc2)C(=O)N[C@H](CCN)C(=O)NCC(=O)N[C@@H](CC(=O)O)C(=O)N[C@H](CO)C(=O)N[C@@H]([C@H](O)C(N)=O)C(=O)N1`, the MIC in test [1] came out at 2 µg/mL (≈ 1.64 µM); in test [2] it was 2 µg/mL (≈ 1.64 µM); in test [3], 1 µg/mL (≈ 0.821 µM).

With `CCCCCCCCCCC[C@@H](O[C@H]1OC[C@@H](O)[C@H](O)[C@H]1O)[C@H](O)[C@H](O)C[C@@H]1CC(=O)N[C@@H](CO)C(=O)N[C@H]([C@H](O)c2ccc(O)cc2)C(=O)N[C@H](CCN)C(=O)NCC(=O)N[C@@H](CC(=O)NCC)C(=O)N[C@H](CO)C(=O)N[C@@H]([C@H](O)C(N)=O)C(=O)N1`, the MIC in test [1] was 2 µg/mL (≈ 1.61 µM); in test [2], 2 µg/mL (≈ 1.61 µM); in test [3], 1 µg/mL (≈ 0.804 µM).

For `CCCCCCCCCCC[C@@H](O[C@H]1OC[C@@H](O)[C@H](O)[C@H]1O)[C@H](O)[C@H](O)C[C@@H]1CC(=O)N[C@@H](CO)C(=O)N[C@H]([C@H](O)c2ccc(O)cc2)C(=O)N[C@H](CCN)C(=O)NCC(=O)N[C@@H](CC(=O)NC)C(=O)N[C@H](CO)C(=O)N[C@@H]([C@H](O)C(N)=O)C(=O)N1`, the MIC in test [1], in test [2] and in test [3] was 0.5 µg/mL (≈ 0.406 µM) throughout.

In the case of `CCCCCCCCCCCCNC(=O)C[C@@H]1NC(=O)CNC(=O)[C@@H](CCN)NC(=O)[C@@H]([C@H](O)c2ccc(O)cc2)NC(=O)[C@H](CO)NC(=O)C[C@@H](C[C@@H](O)[C@@H](O)[C@@H](CCCCCCCCCCC)O[C@H]2OC[C@@H](O)[C@H](O)[C@H]2O)NC(=O)[C@H](CC(N)=O)NC(=O)[C@@H](CO)NC1=O`, the MIC in test [1] was > 8 µg/mL; in test [2], 8 µg/mL (≈ 5.85 µM).

Take `CCCCCCCCCCC[C@@H](O[C@H]1OC[C@@H](O)[C@H](O)[C@H]1O)[C@H](O)[C@H](O)C[C@@H]1CC(=O)N[C@@H](CO)C(=O)N[C@H]([C@H](O)c2ccc(O)cc2)C(=O)N[C@H](CCN)C(=O)NCC(=O)N[C@@H](CC(N)=O)C(=O)N[C@H](CO)C(=O)N[C@@H]([C@H](O)C(N)=O)C(=O)N1`: the MIC was 0.125 µg/mL (≈ 0.103 µM) in test [1], 0.25 µg/mL (≈ 0.206 µM) in test [2] and 0.25 µg/mL (≈ 0.206 µM) in test [3].

On to `CCCCCCCCCCC[C@@H](O[C@H]1OC[C@@H](O)[C@H](O)[C@H]1O)[C@H](O)[C@H](O)C[C@@H]1CC(=O)N[C@@H](CO)C(=O)N[C@H]([C@H](O)c2ccc(O)cc2)C(=O)N[C@H](CCN)C(=O)NCC(=O)N[C@@H](CC(=O)NCCC)C(=O)N[C@H](CO)C(=O)N[C@@H](CC(N)=O)C(=O)N1`, for which the MIC is 0.5 µg/mL (≈ 0.402 µM) in test [1], 0.5 µg/mL (≈ 0.402 µM) in test [2] and 1 µg/mL (≈ 0.805 µM) in test [3].
